Measurements: paper PMC12529750 (Emerging Microbes & Infections, 2025)

How the values were obtained:
[1] = human, in vivo; cited from earlier work
[2] = system: SARS-CoV-2 original virus (SARS-CoV-2/human/Denmark/DK-AHH1/2020); assay: microbe, parasite or virus in culture; format: cell-based
[3] = system: VeroE6 and A549-hACE2 cells
[4] = Severe acute respiratory syndrome coronavirus 2
[5] = Severe acute respiratory syndrome coronavirus 2, Vero C1008

SMILES	Cmax [1]	EC50 [2, 4]	EC50 [2, 5]	Cytotoxicity (cell viability, CC50) [3]
Cn1cnc(Cn2c(=O)[nH]/c(=N\c3cc4cn(C)nc4cc3Cl)n(Cc3cc(F)c(F)cc3F)c2=O)n1 [ENS, Ensitrelvir]	57 µM	100 nM	420 nM	low
CC(C)(C)[C@H](NC(=O)C(F)(F)F)C(=O)N1C[C@H]2[C@@H]([C@H]1C(=O)N[C@H](C#N)C[C@@H]1CCNC1=O)C2(C)C [NIR, Nirmatrelvir]	–	40 nM	2900 nM	–
